Biological target: T1, human RORγ-LBD (Homo sapiens, UniProt P51449)
T1 construct: made in house; host or cells: E. coli (BL-21)
T1 sequence (P51449 262-518): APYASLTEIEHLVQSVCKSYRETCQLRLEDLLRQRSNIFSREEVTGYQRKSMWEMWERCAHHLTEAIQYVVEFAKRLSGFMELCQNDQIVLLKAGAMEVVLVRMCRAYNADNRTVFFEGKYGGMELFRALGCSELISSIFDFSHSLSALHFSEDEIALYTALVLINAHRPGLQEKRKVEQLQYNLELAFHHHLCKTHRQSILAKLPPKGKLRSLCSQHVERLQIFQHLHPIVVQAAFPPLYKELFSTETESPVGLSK
Test: ROR gamma coactivator peptide recruitment Alphascreen assay (RORγ-LBD binding to GRIP1 coactivator peptide)
Format: biochemical
Details: 5 nM human RORγ-LBD, 30 nM 7-β-hydroxycholesterol, 50 nM biotinylated GRIP1 coactivator peptide, overnight incubation at room temperature; read-out: result (pIC50, RORγ coactivator peptide recruitment Alphascreen assay) (converted)
Method in brief: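 His/Flag-tagged human RORγ-LBD (aa 262-518, E. coli-expressed, 5 nM) with agonist 7-β-hydroxycholesterol (30 nM) and biotinylated GRIP1 LXXLL peptide (50 nM) in HEPES pH 7.4 buffer, 2.5% DMSO. Compound 1-in-2 dilutions; Alphascreen bead signal read after overnight incubation at room temperature; pIC50 calculated.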

**Q.** CC(C)CCN(CC(=O)c1c(Cl)cncc1Cl)C(=O)c1cnn([C@H]2CC[C@](C)(C(=O)O)CC2)c1C(F)(F)F [Example 700, trans-4-(4-((2-(3,5-dichloro-4-pyridinyl)-2-oxoethyl)(3-methylbutyl)carbamoyl)-5-(trifluoromethyl)-1H-pyrazol-1-yl)-1-methylcyclohexanecarboxylic acid] was tested. Which IC50 did it give?
**A.** 13.2 nM

**Q.** O=C(c1cnn([C@H]2CC[C@H](C(=O)O)CC2)c1C(F)(F)F)N(CCc1c[nH]c2ccccc12)Cc1ccc(Cl)cc1 [Example 507, trans-4-(4-((4-chlorobenzyl)(2-(1H-indol-3-yl)ethyl)carbamoyl)-5-(trifluoromethyl)-1H-pyrazol-1-yl)cyclohexanecarboxylic acid] was tested. Which IC50 did it give?
**A.** 32.4 nM

**Q.** COc1cccc(F)c1C(=O)CN(CC1CC(C)(C)C1)C(=O)c1cnn([C@H]2CC[C@](C)(C(=O)O)CC2)c1C(F)(F)F [Example 602, trans-4-(4-(((3,3-dimethylcyclobutyl)methyl)(2-(2-fluoro-6-methoxyphenyl)-2-oxoethyl)carbamoyl)-5-(trifluoromethyl)-1H-pyrazol-1-yl)-1-methylcyclohexanecarboxylic acid] was tested. Which IC50 did it give?
**A.** 174 nM

**Q.** With CC(C)(C)CN(C[C@H](O)c1c(Cl)cccc1Cl)C(=O)c1cnn([C@H]2CC[C@H](C(=O)O)CC2)c1C(F)(F)F [Example 524, trans-4-(4-(((2R)-2-(2,6-dichlorophenyl)-2-hydroxyethyl)(2,2-dimethylpropyl)carbamoyl)-5-(trifluoromethyl)-1H-pyrazol-1-yl)cyclohexanecarboxylic acid] as the molecule, how does the IC50 read?
**A.** 77.6 nM

**Q.** For Cc1cc(C)c(C(=O)CN(C(=O)c2cnn([C@H]3CC[C@](C)(C(=O)O)CC3)c2C(F)(F)F)[C@H]2C[C@@H]3[C@H](C2)C3(C)C)c(Cl)n1 [Example 757, trans-4-(4-((2-(2-chloro-4,6-dimethyl-3-pyridinyl)-2-oxoethyl)((1R,3r,5S)-6,6-dimethylbicyclo[3.1.0]hex-3-yl)carbamoyl)-5-(trifluoromethyl)-1H-pyrazol-1-yl)-1-methylcyclohexanecarboxylic acid], which IC50 is on record?
**A.** 7.94 nM

**Q.** For CC1(C)CC(CN(CC(=O)c2c(Cl)cccc2Cl)C(=O)c2cnn([C@H]3C[C@H](CC(=O)O)C3)c2C(F)(F)F)C1 [Example 668, (trans-3-(4-((2-(2,6-dichlorophenyl)-2-oxoethyl)((3,3-dimethylcyclobutyl)methyl)carbamoyl) 5-(trifluoromethyl)-1H-pyrazol-1-yl)cyclobutyl)acetic acid], which IC50 is on record?
**A.** 3.47 nM

**Q.** Which IC50 does the source give for C[C@]12CC[C@](CN(CC(=O)c3c(Cl)cccc3Cl)C(=O)c3cnn([C@H]4CC[C@@H](C(=O)O)CC4)c3C(F)(F)F)(CC1)C2 [Example 615, cis-4-(4-((2-(2,6-dichlorophenyl)-2-oxoethyl)(((1r,4r)-4-methylbicyclo[2.2.1]hept-1-yl)methyl)carbamoyl)-5-(trifluoromethyl)-1H-pyrazol-1-yl)cyclohexanecarboxylic acid] here?
**A.** 49 nM

**Q.** How did the IC50 turn out when COc1ncc(Cl)c(C(=O)CN(CC(C)(C)C)C(=O)c2cnn([C@H]3CC[C@](C)(C(=O)O)CC3)c2C(F)(F)F)c1Cl [Example 753, trans-4-(4-((2-(3,5-dichloro-2-methoxy-4-pyridinyl)-2-oxoethyl)(2,2-dimethylpropyl)carbamoyl)-5-(trifluoromethyl)-1H-pyrazol-1-yl)-1-methylcyclohexanecarboxylic acid] was run?
**A.** 25.1 nM

**Q.** With CC(C)(F)CN(CC(=O)c1c(Cl)cncc1Cl)C(=O)c1cnn([C@H]2C[C@@]3(C[C@H](C(=O)O)C3)C2)c1C(F)(F)F (some centres unmarked) [Example 847, (4s)-6-(4-((2-(3,5-dichloro-4-pyridinyl)-2-oxoethyl)(2-fluoro-2-methylpropyl)carbamoyl)-5-(trifluoromethyl)-1H-pyrazol-1-yl)spiro[3.3]heptane-2-carboxylic acid] as the molecule, how does the IC50 read?
**A.** 21.9 nM

**Q.** With C[C@@H]1C[C@@H](n2ncc(C(=O)N(CC(=O)c3c(Cl)cccc3Cl)[C@@H]3CCC34CCC4)c2C(F)(F)F)CC[C@@H]1C(=O)O [Example 849, (1S,2R,4S)-4-(4-((2-(2,6-dichlorophenyl)-2-oxoethyl)((1R)-spiro[3.3]hept-1-yl)carbamoyl)-5-(trifluoromethyl)-1H-pyrazol-1-yl)-2-methylcyclohexanecarboxylic acid] as the molecule, how does the IC50 read?
**A.** 8.71 nM

**Q.** How did the IC50 turn out when C[C@]1(C(=O)O)CC[C@H](n2ncc(C(=O)N(CC(=O)c3c(Cl)ccc(F)c3Cl)CC3(C(F)(F)F)CC3)c2C(F)(F)F)CC1 [Example 798, (1r,4r)-4-(4-((2-(2,6-dichloro-3-fluorophenyl)-2-oxoethyl)((1-(trifluoromethyl)cyclopropyl)methyl)carbamoyl)-5-(trifluoromethyl)-1H-pyrazol-1-yl)-1-methylcyclohexanecarboxylic acid] was run?
**A.** 3.16 nM

**Q.** Cc1cc(Cl)c(C(=O)CN(C[C@@H]2CC(C)(C)O2)C(=O)c2cnn([C@H]3CC[C@](C)(C(=O)O)CC3)c2C(F)(F)F)c(Cl)c1 [Example 723, trans-4-(4-((2-(2,6-dichloro-4-methylphenyl)-2-oxoethyl)(((2S)-4,4-dimethyl-2-oxetanyl)methyl)carbamoyl)-5-(trifluoromethyl)-1H-pyrazol-1-yl)-1-methylcyclohexanecarboxylic acid] was tested. Which IC50 did it give?
**A.** 10 nM

**Q.** C[C@]1(CN(CC(=O)c2c(Cl)cccc2Cl)C(=O)c2cnn([C@H]3CC[C@](C)(C(=O)O)CC3)c2C(F)(F)F)CCCO1 [Example 728, trans-4-(4-((2-(2,6-dichlorophenyl)-2-oxoethyl)(((2R)-2-methyltetrahydro-2-furanyl)methyl)carbamoyl)-5-(trifluoromethyl)-1H-pyrazol-1-yl)-1-methylcyclohexanecarboxylic acid] was tested. Which IC50 did it give?
**A.** 4.79 nM

**Q.** C[C@]1(C(=O)O)CC[C@H](n2ncc(C(=O)N(C[C@H](O)c3c(Cl)cncc3Cl)CC3(F)CC3)c2C(F)(F)F)CC1 [Example 840, trans-4-(4-(((2R)-2-(3,5-dichloro-4-pyridinyl)-2-hydroxyethyl)((1-fluorocyclopropyl)methyl)carbamoyl)-5-(trifluoromethyl)-1H-pyrazol-1-yl)-1-methylcyclohexanecarboxylic acid] was tested. Which IC50 did it give?
**A.** 240 nM

**Q.** How did the IC50 turn out when CC(C)(C)CN(CC(=O)c1c(Cl)cccc1Cl)C(=O)c1cnn([C@H]2CC[C@H](C(=O)O)CC2)c1C(F)(F)F [Example 545, trans-4-(4-((2-(2,6-dichlorophenyl)-2-oxoethyl)(2,2-dimethylpropyl)carbamoyl)-5-(trifluoromethyl)-1H-pyrazol-1-yl)cyclohexanecarboxylic acid] was run?
**A.** 4.9 nM

**Q.** CC(C)(C)CN(CC(=O)c1c(Cl)cncc1Cl)C(=O)c1cnn([C@H]2CC[C@H](C(=O)O)C(C)(C)C2)c1C(F)(F)F (single isomer, unassigned) [Example 785] was tested. Which IC50 did it give?
**A.** 3.98 nM

**Q.** For C[C@]1(C(=O)O)CC[C@H](n2ncc(C(=O)N(CCc3c(Cl)cncc3Cl)CC3(F)CCCC3)c2C(F)(F)F)CC1 [Example 606, trans-4-(4-((2-(3,5-dichloro-4-pyridinyl)ethyl)((1-fluorocyclopentyl)methyl)carbamoyl)-5-(trifluoromethyl)-1H-pyrazol-1-yl)-1-methylcyclohexanecarboxylic acid], which IC50 is on record?
**A.** 4.47 nM

**Q.** Which IC50 does the source give for CC(C)(C)CN(CC(=O)c1c(Cl)cncc1Cl)C(=O)c1cnn([C@@H]2CC[C@]3(C(=O)O)CCC[C@@H]3C2)c1C(F)(F)F [Example 871] here?
**A.** 5.01 nM

**Q.** COc1cc(Cl)c(C(=O)CN(CC2CCC3(CCC3)CC2)C(=O)c2cnn([C@H]3CC[C@@](C)(C(=O)O)CC3)c2C(F)(F)F)c(Cl)c1 [Example 891, trans-4-(4-((2-(2,6-dichloro-4-methoxyphenyl)-2-oxoethyl)(spiro[3.5]non-7-ylmethyl)carbamoyl)-5-(trifluoromethyl)-1 H-pyrazol-1-yl)-1 - methylcyclohexanecarboxylic acid] was tested. Which IC50 did it give?
**A.** 15.5 nM

**Q.** CC1(CN(CC(=O)c2c(Cl)cc(F)cc2Cl)C(=O)c2cnn([C@H]3CC[C@@](C)(C(=O)O)CC3)c2C(F)(F)F)CC1 [Example 716, trans-4-(4-((2-(2,6-dichloro-4-fluorophenyl)-2-oxoethyl)((1-methylcyclopropyl)methyl)carbamoyl)-5-(trifluoromethyl)-1H-pyrazol-1-yl)-1-methylcyclohexanecarboxylic acid] was tested. Which IC50 did it give?
**A.** 2.69 nM

**Q.** How did the IC50 turn out when CC1(C)CC[C@H]1N(CC(=O)c1c(Cl)cccc1Cl)C(=O)c1cnn([C@H]2CC[C@](C)(C(=O)O)CC2)c1C(F)(F)F [Example 619] was run?
**A.** 7.76 nM

**Q.** How did the IC50 turn out when C[C@H]1C[C@@H](n2ncc(C(=O)N(CC(=O)c3c(Cl)cncc3Cl)C[C@]34CC[C@H](CC3)O4)c2C(F)(F)F)CC[C@@H]1C(=O)O [Example 881, (1S,2S,4S)-4-(4-((2-(3,5-dichloro-4-pyridinyl)-2-oxoethyl)((1s,4s)-7-oxabicyclo[2.2.1]hept-1-ylmethyl)carbamoyl)-5-(trifluoromethyl)-1H-pyrazol-1-yl)-2-methylcyclohexanecarboxylic acid] was run?
**A.** 24.5 nM

**Q.** C[C@@H]1C[C@@H](n2ncc(C(=O)N(CC(=O)c3c(Cl)cncc3Cl)CC(C)(C)C(F)(F)F)c2C(F)(F)F)CC[C@@H]1C(=O)O [Example 802, (1S,2R,4S)-4-(4-((2-(3,5-dichloro-4-pyridinyl)-2-oxoethyl)(3,3,3-trifluoro-2,2-dimethylpropyl)carbamoyl)-5-(trifluoromethyl)-1H-pyrazol-1-yl)-2-methylcyclohexanecarboxylic acid] was tested. Which IC50 did it give?
**A.** 3.02 nM

— patent US9365522B2, “Pyrazole amide derivative” (AMGEN INC., priority 2015, dated 2016)
